A short description of series [1]: Solubilization of MFS-agent in water. The series is classed as physicochemical. To be noted: 0.1 mM in water, no DMSO or other solvents. The method, then: (§1) To examine the multi-functionality of the complete MFS-agent 2 (FIG. 2B), compound 2 was solubilized in water (0.1 mM) and imaged via three distinct imaging modalities (FIG. 4A-C). […] This is a highly desirable trait, for a molecule that will be delivered through the blood stream. […] Red fluorescence emission was determined by using spectral analysis of a confocal microscope (FIG. 4B).

Series [2] is described as follows: Phantom T1 MRI measurement (1 T scanner). Conditions: 0.1 mM dissolved in water vs control (0 mM), 1 T MRI scanner. The method, then: (§2) FIGS. 4A-C present the characterization of the MFS-agent 2 using different imaging modalities; (4A) Phantom T1 MRI-measurement (Bruker, ASPECT 1 T MRI scanner, USA) of control (0 mM) and MFS-agent (0.1 mM dissolved in water), (4B) Emission spectra of the MFS measured by confocal microscope (LSM-880, Zeiss, Germany) with 561 nm laser excitation (peak emission (nm): 617), (4C) and Phantom measurement in X-ray micro-Computed Tomography scanner (Bruker, Skyscan micro-CT, USA) of control (0 mM) and MFS-agent (0.1 mM dissolved in water).
as §1

Series [3] is described as follows: Emission spectrum by confocal microscope. The series is classed as physicochemical. Conditions: 561 nm laser excitation. The method, then: as §2, §1
Series [4] in a line: Phantom measurement in X-ray micro-CT scanner. Conditions: 0.1 mM dissolved in water vs control (0 mM). The method, then: as §2, §1

The structures appear in SMILES notation.

Regarding `Nc1nc(OCc2ccc(CNC(=O)NCCOCCN(CCOCCn3cc(CNC(=O)CN4CCN(CC(=O)O)CCN(CC(=O)O)CCN(CC(=O)O)CC4)nn3)S(=O)(=O)c3ccc(C4=c5cc6c7c(c5Oc5c4cc4c8c5CCCN8CCC4)CCC[N+]=7CCC6)c(S(=O)(=O)O)c3)cc2)c2nc[nH]c2n1` [compound 2], in series [1], the solubility in water result is listed as “dissolved easily in water”. Also, in series [2], the “T1 MRI contrast” value is reported as “very bright contrast”. This molecule also had a peak emission in series [3] of 617 nm. In series [4], the “CT signal (X-ray attenuation)” value is “very strong CT signal”.

Values taken from US20200405885A1, “MAGNETIC RESONANCE IMAGING (MRI) CONTRAST AGENTS AND USE THEREOF” (TECHNION RESEARCH & DEVELOPMENT FOUNDATION LTD., priority 2017, published 2020).
